In ChEMBL document CHEMBL5257131, “Quantum Annealing Designs Nonhemolytic Antimicrobial Peptides in a Discrete Latent Space” (ACS Med Chem Lett, 2023):
Peptide text beside a SMILES is read from it.

What was measured:
Escherichia coli = test: Antimicrobial activity against Escherichia coli assessed as inhibition of microbial growth incubated for 26 hrs by micro-dilution test; type: functional
[1] = Hemolytic activity in rabbit RBC assessed as hemolysis at 100 uM incubated for 6 hrs by Uv-vis spectrophotometric analysis; type: toxicity, cell-based, Oryctolagus cuniculus; details: erythrocyte
[2] = Hemolytic activity in human erythrocytes assessed as hemolysis at 1 uM incubated for 1 hrs by spectrophotometric analysis relative to control; type: toxicity, cell-based, Erythrocyte; details: read-out: Activity

MIC (Escherichia coli) [µg/mL] | Structure (SMILES) | Activity [1] | hemolysis at 1 h, 1 µM [2] [%]
> 100 | CC[C@H](C)[C@H](NC(=O)CNC(=O)[C@H](CCCCN)NC(=O)[C@H](C)NC(=O)[C@@H](NC(=O)[C@H](CCCCN)NC(=O)[C@H](CCCCN)NC(=O)[C@H](CC(C)C)NC(=O)[C@@H](NC(=O)[C@@H](NC(=O)[C@@H](NC(=O)[C@H](CC(C)C)NC(=O)CN)C(C)C)[C@@H](C)O)C(C)C)C(C)C)C(=O)N[C@H](C(=O)N[C@@H](CCCCN)C(=O)N[C@H](C(=O)N[C@@H](C)C(=O)N[C@@H](CO)C(=O)N[C@@H](CCCCN)C(=O)N[C@H](C(=O)NCC(=O)N[C@@H](CO)C(=O)N[C@@H](CCCCN)C(=O)N[C@@H](CCC(=O)O)C(=O)N[C@@H](CC(C)C)C(=O)O)C(C)C)[C@@H](C)O)C(C)C (H-GLVTVLKKVAKGIVKTASKVGSKEL-OH) | – | –
6.25 | CC(C)C[C@H](NC(=O)[C@H](CC(N)=O)NC(=O)[C@H](CCCCN)NC(=O)[C@H](CC(C)C)NC(=O)[C@@H](NC(=O)[C@H](CCCCN)NC(=O)[C@H](Cc1ccccc1)NC(=O)CN)[C@@H](C)O)C(=O)N[C@@H](C)C(=O)N[C@@H](CCCCN)C(=O)N[C@@H](CCCCN)C(=O)N[C@H](C(=O)N[C@@H](C)C(=O)N[C@@H](CCCCN)C(=O)N[C@@H](CCCCN)C(=O)N[C@H](C(=O)N[C@@H](CC(C)C)C(=O)N[C@@H](CCCCN)C(=O)N[C@@H](C)C(=O)N[C@H](C(=O)N[C@@H](CCCNC(=N)N)C(=O)O)C(C)C)C(C)C)C(C)C (H-GFKTLKNLAKKVAKKVLKAVR-OH) | Non-Toxic | –
– | CC[C@H](C)[C@H](NC(=O)CN)C(=O)NCC(=O)N[C@@H](C)C(=O)N[C@H](C(=O)N[C@@H](CC(C)C)C(=O)N[C@@H](CCCCN)C(=O)N[C@H](C(=O)N[C@@H](CC(C)C)C(=O)N[C@H](C(=O)N[C@H](C(=O)NCC(=O)N[C@@H](CC(C)C)C(=O)N1CCC[C@H]1C(=O)N[C@@H](C)C(=O)N[C@@H](CC(C)C)C(=O)N[C@H](C(=O)N[C@@H](CO)C(=O)N[C@@H](Cc1c[nH]c2ccccc12)C(=O)N[C@H](C(=O)N[C@@H](CCCCN)C(=O)N[C@@H](CCCNC(=N)N)C(=O)N[C@@H](CCCCN)C(=O)N[C@@H](CCCNC(=N)N)C(=O)N[C@@H](CCC(N)=O)C(=O)N[C@@H](CCC(N)=O)C(N)=O)[C@@H](C)CC)[C@@H](C)CC)[C@@H](C)O)[C@@H](C)O)C(C)C)C(C)C [MELITTIN] | – | 90

Structure (SMILES) | MIC (Escherichia coli) [µg/mL] | Activity [1] | hemolysis at 1 h, 1 µM [2] [%]
CC1(C)S[C@@H]2[C@H](NC(=O)[C@H](N)c3ccccc3)C(=O)N2[C@H]1C(=O)O [AMPICILLIN] | 6.25 | – | –
